Experimental data published in paper doi:10.1101/2025.02.12.637899v1 (biorxiv, 2025).
Where two headings read alike, the source gives them in different places.

Assays:
[1] = target: T1, mP2X7R (full-length wild-type mouse P2X7 receptor) (Mus musculus, UniProt Q9Z1M0); experiment: calcium influx (Fluo-4), […]1 cells; type: cell-based
T1 construct: gene P2rx7; full-length wild-type homotrimer; untagged in Xenopus oocytes for TEVC
T1 sequence (Q9Z1M0 1-595): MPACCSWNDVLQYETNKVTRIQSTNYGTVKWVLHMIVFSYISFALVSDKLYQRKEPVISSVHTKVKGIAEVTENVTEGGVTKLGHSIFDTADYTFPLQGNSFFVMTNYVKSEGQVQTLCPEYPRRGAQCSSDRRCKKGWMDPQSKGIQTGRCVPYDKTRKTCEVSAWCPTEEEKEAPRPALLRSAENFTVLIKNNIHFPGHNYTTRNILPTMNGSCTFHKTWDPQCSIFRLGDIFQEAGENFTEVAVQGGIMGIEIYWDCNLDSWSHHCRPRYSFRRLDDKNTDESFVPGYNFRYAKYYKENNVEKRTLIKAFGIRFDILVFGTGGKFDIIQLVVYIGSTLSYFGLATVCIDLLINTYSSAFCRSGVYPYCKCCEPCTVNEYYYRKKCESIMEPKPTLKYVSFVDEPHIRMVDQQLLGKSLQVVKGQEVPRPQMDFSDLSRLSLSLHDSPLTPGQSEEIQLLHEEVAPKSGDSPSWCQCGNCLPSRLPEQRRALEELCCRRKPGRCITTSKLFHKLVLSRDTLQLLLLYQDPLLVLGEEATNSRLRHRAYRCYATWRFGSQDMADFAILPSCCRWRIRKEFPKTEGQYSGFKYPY

[2] = target: T2, rP2X7R (full-length wild-type rat P2X7 receptor) (Rattus norvegicus, UniProt Q64663); experiment: calcium influx (Fluo-4), […]1 cells; type: cell-based
T2 construct: gene P2rx7; full-length wild-type homotrimer; untagged in Xenopus oocytes for TEVC
T2 sequence (Q64663 1-595): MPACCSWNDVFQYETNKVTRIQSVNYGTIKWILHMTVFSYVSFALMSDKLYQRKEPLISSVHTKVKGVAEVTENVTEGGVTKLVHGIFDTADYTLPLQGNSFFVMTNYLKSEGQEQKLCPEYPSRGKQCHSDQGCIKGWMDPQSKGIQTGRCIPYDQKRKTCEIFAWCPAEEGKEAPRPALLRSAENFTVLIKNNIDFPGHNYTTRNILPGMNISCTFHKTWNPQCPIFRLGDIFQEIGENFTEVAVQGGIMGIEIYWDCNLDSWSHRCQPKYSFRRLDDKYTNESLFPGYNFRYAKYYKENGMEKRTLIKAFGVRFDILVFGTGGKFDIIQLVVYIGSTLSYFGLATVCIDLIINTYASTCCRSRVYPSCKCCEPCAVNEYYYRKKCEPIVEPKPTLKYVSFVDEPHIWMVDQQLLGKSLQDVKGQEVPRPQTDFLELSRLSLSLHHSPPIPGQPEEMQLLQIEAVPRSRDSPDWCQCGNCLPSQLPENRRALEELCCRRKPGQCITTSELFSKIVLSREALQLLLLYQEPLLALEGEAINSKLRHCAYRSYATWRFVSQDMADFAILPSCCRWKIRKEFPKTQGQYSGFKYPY

[3] = target: T3, hP2X7R (full-length wild-type human P2X7 receptor) (Homo sapiens, UniProt Q99572); experiment: calcium influx (Fluo-4), […]1 cells; type: cell-based; conditions: agonist BzATP at EC80; allosteric antagonist, classical allosteric site; pH 7.4
T3 construct: gene P2RX7; full-length wild-type homotrimer; structures: C-terminal GFP, 3C site and His tag, digested with HRV 3C, from HEK293 / HEK293 GNTI- cells; BLI: biotinylated receptor; TEVC: untagged in Xenopus oocytes; calcium influx: 1321N1 cells; ethidium uptake: HEK293 cells
T3 sequence (Q99572 1-595): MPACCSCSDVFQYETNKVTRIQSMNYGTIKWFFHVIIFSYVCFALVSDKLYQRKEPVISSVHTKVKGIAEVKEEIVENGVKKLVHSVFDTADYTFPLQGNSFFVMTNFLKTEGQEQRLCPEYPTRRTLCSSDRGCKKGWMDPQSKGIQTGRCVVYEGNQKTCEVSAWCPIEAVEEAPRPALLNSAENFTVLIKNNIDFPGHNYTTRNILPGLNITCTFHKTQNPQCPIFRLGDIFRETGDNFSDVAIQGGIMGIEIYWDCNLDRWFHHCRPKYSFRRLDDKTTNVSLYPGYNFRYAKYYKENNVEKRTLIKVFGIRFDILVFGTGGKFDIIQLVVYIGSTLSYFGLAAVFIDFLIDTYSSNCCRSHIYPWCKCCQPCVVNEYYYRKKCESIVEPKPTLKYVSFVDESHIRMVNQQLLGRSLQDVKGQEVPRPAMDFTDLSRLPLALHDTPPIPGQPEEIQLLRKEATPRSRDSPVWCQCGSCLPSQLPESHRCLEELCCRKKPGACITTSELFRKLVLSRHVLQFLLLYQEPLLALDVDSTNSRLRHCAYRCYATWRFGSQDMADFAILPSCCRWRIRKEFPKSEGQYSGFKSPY

[4] = target: T4, hP2X4R (human P2X4 receptor) (Homo sapiens, UniProt Q99571); experiment: calcium influx (Fluo-4), […]1 cells; type: cell-based
T4 construct: gene P2RX4; stably expressed in 1321N1 astrocytoma cells by retroviral system
T4 sequence (Q99571 1-388): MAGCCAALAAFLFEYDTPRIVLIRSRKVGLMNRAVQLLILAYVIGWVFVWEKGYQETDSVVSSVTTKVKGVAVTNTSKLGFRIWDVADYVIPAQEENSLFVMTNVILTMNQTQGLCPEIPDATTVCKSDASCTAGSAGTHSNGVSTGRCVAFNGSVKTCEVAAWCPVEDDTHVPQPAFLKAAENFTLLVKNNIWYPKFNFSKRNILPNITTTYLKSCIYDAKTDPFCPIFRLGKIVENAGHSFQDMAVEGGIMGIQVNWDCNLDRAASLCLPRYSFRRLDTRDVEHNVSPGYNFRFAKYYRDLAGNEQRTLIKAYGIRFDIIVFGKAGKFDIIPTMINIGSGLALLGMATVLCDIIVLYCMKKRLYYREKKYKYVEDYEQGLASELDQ

[5] = target: T5, hP2X3R (human P2X3 receptor, S15V mutant) (Homo sapiens, UniProt P56373, S15V); experiment: calcium influx (Calcium […]), […]1 cells; type: cell-based
T5 construct: gene P2RX3; S15V mutant to prevent fast desensitization; stably expressed in 1321N1 astrocytoma cells by retroviral system
T5 sequence (P56373 1-397 S15V): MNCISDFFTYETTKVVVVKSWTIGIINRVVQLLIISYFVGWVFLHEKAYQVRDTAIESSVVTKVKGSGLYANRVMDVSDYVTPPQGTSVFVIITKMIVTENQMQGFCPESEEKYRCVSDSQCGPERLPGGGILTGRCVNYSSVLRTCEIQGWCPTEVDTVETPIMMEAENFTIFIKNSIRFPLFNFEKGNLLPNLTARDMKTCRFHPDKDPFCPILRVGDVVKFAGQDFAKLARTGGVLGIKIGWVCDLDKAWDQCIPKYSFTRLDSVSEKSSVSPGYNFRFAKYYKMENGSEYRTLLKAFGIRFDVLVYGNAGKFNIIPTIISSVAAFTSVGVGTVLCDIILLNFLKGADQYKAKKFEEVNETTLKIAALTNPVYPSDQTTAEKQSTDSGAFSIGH

[6] = target: T6, hP2X2R (human P2X2 receptor) (Homo sapiens, UniProt Q9UBL9); experiment: calcium influx (Fluo-4), […]1 cells; type: cell-based
T6 construct: gene P2RX2; stably expressed in 1321N1 astrocytoma cells by retroviral system
T6 sequence (Q9UBL9 1-471): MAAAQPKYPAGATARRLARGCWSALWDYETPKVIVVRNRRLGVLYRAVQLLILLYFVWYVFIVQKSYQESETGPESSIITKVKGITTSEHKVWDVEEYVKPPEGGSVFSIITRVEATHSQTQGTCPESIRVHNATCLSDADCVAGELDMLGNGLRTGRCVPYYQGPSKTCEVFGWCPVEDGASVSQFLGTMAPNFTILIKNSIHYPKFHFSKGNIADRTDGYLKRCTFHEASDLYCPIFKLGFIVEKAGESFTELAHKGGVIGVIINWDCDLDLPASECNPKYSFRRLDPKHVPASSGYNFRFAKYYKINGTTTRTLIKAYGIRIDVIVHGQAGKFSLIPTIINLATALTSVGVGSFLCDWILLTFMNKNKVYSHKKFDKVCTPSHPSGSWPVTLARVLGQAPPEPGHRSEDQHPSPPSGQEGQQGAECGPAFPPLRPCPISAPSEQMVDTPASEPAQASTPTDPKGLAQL

[7] = target: T3, hP2X7R (full-length wild-type human P2X7 receptor); experiment: two-electrode voltage clamp, Xenopus oocytes; type: cell-based
[8] = target: T3, hP2X7R (full-length wild-type human P2X7 receptor); experiment: bio-layer interferometry, kinetic […] fit; type: binding
[9] = target: T2, rP2X7R (full-length wild-type rat P2X7 receptor); experiment: two-electrode voltage clamp, Xenopus oocytes; type: cell-based
[10] = target: T1, mP2X7R (full-length wild-type mouse P2X7 receptor); experiment: two-electrode voltage clamp, Xenopus oocytes; type: cell-based
[11] = target: T3, hP2X7R (full-length wild-type human P2X7 receptor); experiment: ethidium bromide accumulation, HEK293 cells expressing hP2X7R; type: cell-based
Excerpt: ethidium bromide accumulation, HEK293 cells expressing hP2X7R on hP2X7R (full-length wild-type human P2X7 receptor)

SMILES: CC12CC3CC1(C)C1(C)CC3(C(=O)NNc3ccccc3Cl)CC21C [UB-MBX-46]
- IC50 ([1]; agonist BzATP at EC80, pH 7.4): 4.52 ± 0.72 nM
- IC50 ([2]; agonist BzATP at EC80, pH 7.4): 40.6 ± 10.4 nM

SMILES: O=C(NNc1ccccc1Cl)C12CC3CC(CC(C3)C1)C2 [UB-ALT-P30]
- IC50 [3]: 18 ± 8.3 nM
- IC50 [1]: 150 ± 27 nM
- inhibition at 10 µM [4]: 44 ± 14%
- inhibition at 10 µM [5]: 86 ± 9%
- inhibition at 10 µM [6]: 29 ± 7%
- IC50 [2]: 120 ± 50 nM

SMILES: Nc1ncnc2c1ncn2[C@@H]1O[C@H](COP(=O)(O)OP(=O)(O)OP(=O)(O)O)[C@@H](O)[C@H]1O [ATP]
- EC50 [7]: 89000 ± 8300 nM
- Kd [8]: 650 ± 120 nM
- EC50 [9]: 34000 ± 8400 nM
- EC50 [10]: 70000 ± 17000 nM

SMILES: CC12CC3CC(C)(C1)CC(C(=O)NNc1ccccc1Cl)(C3)C2 [UB-ALT-P36]
- IC50 [11]: 477 ± 170 nM

SMILES: O=C(NNc1ccccc1Cl)C12C3C4C5C3C1C5C42 (stereo not drawn) [UB-ALT-P38]
- IC50 [11]: 430 ± 64 nM

SMILES: CC12CC3(C)CC(C)(C1)CC(C(=O)NNc1ccccc1Cl)(C2)C3 [UB-ALT-P37]
- IC50 [11]: > 1000 nM
